Data published in the supplement of paper PMC11208160.

Assay: recombinant UMI read abundance after kanamycin selection (control-corrected) (log10(CPM+1)); higher = more efficient recombination; extreme values may be limits of the assay; sequences stand for … in AGTGCAGAGAAAATCGGCCAGTTTTCTCTGCCTGCAGTCCGCATGCCGTGGGACCCCTTGGGTTCTAACCTGTTGCCTAGATTTATGCAGCGGACTGCCTTTCTCCCAAAGTGATAAACCGG…AGGTTGGTTTCACT; site = the 11-nt donor
Summary of the method: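 Values, expressed as log10(CPM+1), derive from recombinant UMI counts converted to CPM, averaged across replicates and scaled by control-derived factors. Plating was with IPTG (0.07 mM) plus kanamycin or unselected, two replicates each. The screen pooled donor and donor-binding-loop pairs for the IS621 bridge recombinase in Escherichia coli.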
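Note: IS621 bridge recombinase in Escherichia coli cells against a fixed T5 target plasmid.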

Row | Sequence | recombinant UMI read abundance (log10)
1 | GTGGAGGCATGGACCGGTTTTCCCGGTAATCCGTATTTGTG (site GTGGAGGCTCA) | 1.41
2 | GTGGAGGCATGGACCGGTTTTCCCGGTAATCCGTATTTGTG (site GTGGAGGCTCC) | 0.284
3 | GTGGAGGCATGGACCGGTTTTCCCGGTAATCCGTATTTGTG (site GTGGAGGCTCG) | 1.53
4 | GTGGAGGCATGGACCGGTTTTCCCGGTAATCCGTATTTGTG (site GTGGAGGCTCT) | 1.15
5 | GTGGAGGCATGGACCGGTTTTCCCGGTAATCCGTATTTGTG (site GTGGAGGCTGA) | 0.461
6 | GTGGAGGCATGGACCGGTTTTCCCGGTAATCCGTATTTGTG (site GTGGAGGCTTA) | 1.42
7 | GTGGAGGCATGGACCGGTTTTCCCGGTAATCCGTATTTGTG (site GTGGAGTCTCA) | 1.82
8 | GTGGAGGCATGGACCGGTTTTCCCGGTAATCCGTATTTGTG (site GTGGATGCTCA) | 1.27
9 | GTGGAGGCATGGACCGGTTTTCCCGGTAATCCGTATTTGTG (site GTGGCGGCTCA) | 0.00613
10 | GTGGAGGCATGGACCGGTTTTCCCGGTAATCCGTATTTGTG (site GTGGGGGCTCA) | 0.918
11 | GTGGAGGCATGGACCGGTTTTCCCGGTAATCCGTATTTGTG (site GTGGTGGCTCA) | 0
12 | GTGGAGGCATGGACCGGTTTTCCCGGTAATCCGTATTTGTG (site GTGTAGGCTCA) | 1.06
13 | GTGGAGGCATGGACCGGTTTTCCCGGTAATCCGTATTTGTG (site GTTGAGGCTCA) | 0.792
14 | GTGGAGGCATGGACCGGTTTTCCCGGTAATCCGTATTTGTG (site TTGGAGGCTCA) | 0.821
15 | GTGGATGCATGGACCGGTTTTCCCGGTAATCCGTATTTGTG (site GTGGAAGCTCA) | 1.82
16 | GTGGATGCATGGACCGGTTTTCCCGGTAATCCGTATTTGTG (site GTGGACGCTCA) | 0.837
17 | GTGGATGCATGGACCGGTTTTCCCGGTAATCCGTATTTGTG (site GTGGAGGCTCA) | 0.696
18 | GTGGATGCATGGACCGGTTTTCCCGGTAATCCGTATTTGTG (site GTGGATGCTCA) | 1.67
19 | GTGGCACCATGGACCGGTTTTCCCGGTAATCCGTATTTGAG (site GTGGCACCTCT) | 0.0198
20 | GTGGCACCATGGACCGGTTTTCCCGGTAATCCGTATTTGCA (site GAGGCACCTTG) | 0
21 | GTGGCACCATGGACCGGTTTTCCCGGTAATCCGTATTTGCA (site GCGGCACCTTG) | 0
22 | GTGGCACCATGGACCGGTTTTCCCGGTAATCCGTATTTGCA (site GGGGCACCTTG) | 0
23 | GTGGCACCATGGACCGGTTTTCCCGGTAATCCGTATTTGCA (site GTGGCACCTTG) | 0
24 | GTGGCGGCATGGACCGGTTTTCCCGGTAATCCGTATTTGTG (site GTGGAGGCTCA) | 0.154
25 | GTGGCGGCATGGACCGGTTTTCCCGGTAATCCGTATTTGTG (site GTGGCGGCTCA) | 0.696
26 | GTGGCGGCATGGACCGGTTTTCCCGGTAATCCGTATTTGTG (site GTGGGGGCTCA) | 0.0119

Row | Sequence | recombinant UMI read abundance (log10)
27 | GTGGCGGCATGGACCGGTTTTCCCGGTAATCCGTATTTGTG (site GTGGTGGCTCA) | 0.00615
28 | GTGGCTGCATGGACCGGTTTTCCCGGTAATCCGTATTTGAT (site GTGGCTGCTAT) | 2.18
29 | GTGTAGGCATGGACCGGTTTTCCCGGTAATCCGTATTTGGC (site ATGTAGGCTGC) | 1.98
30 | GTGTAGGCATGGACCGGTTTTCCCGGTAATCCGTATTTGGC (site CTGTAGGCTGC) | 1.99
31 | GTGTAGGCATGGACCGGTTTTCCCGGTAATCCGTATTTGGC (site GTGTAGGCTGC) | 2.67
32 | GTGTAGGCATGGACCGGTTTTCCCGGTAATCCGTATTTGGC (site TTGTAGGCTGC) | 2.28
33 | GTGTAGGCATGGACCGGTTTTCCCGGTAATCCGTATTTGTG (site GTGAAGGCTCA) | 0.891
34 | GTGTAGGCATGGACCGGTTTTCCCGGTAATCCGTATTTGTG (site GTGCAGGCTCA) | 1.36
35 | GTGTAGGCATGGACCGGTTTTCCCGGTAATCCGTATTTGTG (site GTGGAGGCTCA) | 0.00345
36 | GTGTAGGCATGGACCGGTTTTCCCGGTAATCCGTATTTGTG (site GTGTAGGCTCA) | 1.75
37 | GTGTTTCCATGGACCGGTTTTCCCGGTAATCCGTATTTGTG (site GTGTTTCCTCA) | 0.368
38 | GTTAGAGCATGGACCGGTTTTCCCGGTAATCCGTATTTGCA (site GTTAGAGCTTG) | 3.02
39 | GTTAGAGCATGGACCGGTTTTCCCGGTAATCCGTATTTGCA (site GTTCGAGCTTG) | 1.01
40 | GTTAGAGCATGGACCGGTTTTCCCGGTAATCCGTATTTGCA (site GTTGGAGCTTG) | 1.6
41 | GTTAGAGCATGGACCGGTTTTCCCGGTAATCCGTATTTGCA (site GTTTGAGCTTG) | 1.08
42 | GTTAGAGCATGGACCGGTTTTCCCGGTAATCCGTATTTGGG (site GTTAGAGCTCC) | 0.089
43 | GTTAGCACATGGACCGGTTTTCCCGGTAATCCGTATTTGGC (site GTTAGAACTGC) | 0
44 | GTTAGCACATGGACCGGTTTTCCCGGTAATCCGTATTTGGC (site GTTAGCACTGC) | 2.11
45 | GTTAGCACATGGACCGGTTTTCCCGGTAATCCGTATTTGGC (site GTTAGGACTGC) | 0.0382
46 | GTTAGCACATGGACCGGTTTTCCCGGTAATCCGTATTTGGC (site GTTAGTACTGC) | 0
47 | GTTAGTCCATGGACCGGTTTTCCCGGTAATCCGTATTTGAA (site GTTAGTCCTTT) | 0.171
48 | GTTCAAGCATGGACCGGTTTTCCCGGTAATCCGTATTTGTC (site GTTCAAGCTGA) | 1.84
49 | GTTCATGCATGGACCGGTTTTCCCGGTAATCCGTATTTGGT (site GTACATGCTAC) | 0.216
50 | GTTCATGCATGGACCGGTTTTCCCGGTAATCCGTATTTGGT (site GTCCATGCTAC) | 0.258
51 | GTTCATGCATGGACCGGTTTTCCCGGTAATCCGTATTTGGT (site GTGCATGCTAC) | 0.477
52 | GTTCATGCATGGACCGGTTTTCCCGGTAATCCGTATTTGGT (site GTTCATGCTAC) | 0.717
